This experiment deals with Tie-2 (Homo sapiens, UniProt Q02763). Kind of experiment: Tie-2 tyrosine kinase activity assay (luciferase/luciferin ATP consumption with pEY substrate, or 33P-ATP incorporation). The settings on record: human enzyme Tie-2. It is filed as biochemical. Here is the method:
One measure of inhibition is Ki. […] The Ki for a compound is determined from the IC50 based on three assumptions. First, only one compound molecule binds to the enzyme and there is no cooperativity. […] Third, the enzymatic rate of the enzyme-inhibitor complex is zero. The rate data (i.e. compound concentration) are fitted to the equation:
[formula] where V is the observed rate, Vmax, is the rate of the free enzyme, I0 is the inhibitor concentration, E0 is the enzyme concentration, and Kd is the dissociation constant of the enzyme-inhibitor complex.
Tyrosine kinase activity is determined by 1) measurement of kinase-dependent ATP consumption by in the presence of a generic substrate such as […], tyrosine (pEY), by luciferase/luciferin-mediated chemiluminescence or; 2) incorporation of radioactive phosphate derived from ^33P-ATP into a generic substrate which has been adsorbed onto the well surface of polystyrene microtiter plates. Phosphorylated substrate products are quantified by scintillation spectrometry.
Inhibition is indicated as IC50 with following key: A=IC50 less than 50 nM, B=IC50 greater than 50 nM, but less than or equal to 1000 nM, C=IC50 greater than 1000 nM, but less than 10,000 nM, D=IC50 10,000 nM or greater, and “-”=no data available. The abbreviation for human enzyme, Tie-2, is defined as tyrosine kinase with immunoglobulin and EGF repeats.

Chain of Tie-2 (Q02763 23-1124): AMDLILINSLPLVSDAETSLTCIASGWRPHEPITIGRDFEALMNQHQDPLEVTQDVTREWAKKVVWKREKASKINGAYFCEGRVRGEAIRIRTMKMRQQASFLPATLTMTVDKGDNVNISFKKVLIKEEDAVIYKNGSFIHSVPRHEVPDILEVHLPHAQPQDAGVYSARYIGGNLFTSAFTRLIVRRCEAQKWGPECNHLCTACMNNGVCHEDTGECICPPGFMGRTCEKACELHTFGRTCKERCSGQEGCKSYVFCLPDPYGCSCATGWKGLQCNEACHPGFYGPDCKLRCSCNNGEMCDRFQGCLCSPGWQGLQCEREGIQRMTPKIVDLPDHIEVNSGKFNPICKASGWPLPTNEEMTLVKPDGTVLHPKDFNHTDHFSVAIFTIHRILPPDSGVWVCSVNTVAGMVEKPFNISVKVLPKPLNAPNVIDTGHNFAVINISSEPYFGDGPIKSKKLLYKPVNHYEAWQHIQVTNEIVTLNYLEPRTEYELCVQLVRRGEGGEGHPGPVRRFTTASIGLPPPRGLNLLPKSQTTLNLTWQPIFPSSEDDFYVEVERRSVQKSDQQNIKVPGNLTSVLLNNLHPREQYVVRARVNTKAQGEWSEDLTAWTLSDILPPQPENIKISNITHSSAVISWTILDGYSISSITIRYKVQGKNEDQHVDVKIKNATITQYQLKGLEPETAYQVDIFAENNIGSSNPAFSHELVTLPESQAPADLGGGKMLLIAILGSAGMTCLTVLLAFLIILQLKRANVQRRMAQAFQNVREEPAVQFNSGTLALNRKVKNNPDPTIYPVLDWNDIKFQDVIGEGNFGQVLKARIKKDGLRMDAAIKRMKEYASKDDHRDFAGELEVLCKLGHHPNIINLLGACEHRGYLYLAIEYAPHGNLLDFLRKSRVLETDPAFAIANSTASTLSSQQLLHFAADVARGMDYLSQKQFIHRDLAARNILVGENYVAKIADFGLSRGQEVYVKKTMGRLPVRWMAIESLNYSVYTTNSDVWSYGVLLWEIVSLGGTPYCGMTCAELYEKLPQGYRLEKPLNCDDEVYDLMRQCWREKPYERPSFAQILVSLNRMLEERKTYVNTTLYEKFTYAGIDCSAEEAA

Turning to `N#Cc1nc(OCc2ccncc2)c(N2CCN(C(=O)Nc3cccc(C(F)(F)F)c3)CC2)nc1C#N` [Example 91, 4-{5,6-dicyano-3-[(pyridin-4-ylmethyl)oxy]pyrazin-2-yl}-N-[3-(trifluoromethyl)phenyl]piperazine-1-carboxamide], the IC50 fell in the range of 50 to 1000 nM. The result for `CCc1cccc(NC(=O)N2CCN(c3nccnc3OCc3ccncc3)CC2)c1` [Example 92, N-(3-ethylphenyl)-4-{3-[(pyridin-4-ylmethyl)oxy]pyrazin-2-yl}piperazine-1-carboxamide] reads less than 50 nM; that for `CCc1cccc(NC(=O)N2CCN(c3nccnc3OCc3ccncc3)CC2C)c1` (stereo not shown) [Example 93, N-(3-ethylphenyl)-2-methyl-4-{3-[(pyridin-4-ylmethyl)oxy]pyrazin-2-yl}piperazine-1-carboxamide], less than 50 nM. For `CCc1cccc(NC(=O)N2C(C)CN(c3nccnc3OCc3ccncc3)CC2C)c1` (stereo not shown) [Example 94, N-(3-ethylphenyl)-2,6-dimethyl-4-{3-[(pyridin-4-ylmethyl)oxy]pyrazin-2-yl}piperazine-1-carboxamide] the value was 50 to 1000 nM; for `CCc1cccc(NC(=O)N2CCN(c3nc4ccccc4nc3OCc3ccncc3)CC2C)c1` (stereo not shown) [Example 95, N-(3-ethylphenyl)-2-methyl-4-{3-[(pyridin-4-ylmethyl)oxy]quinoxalin-2-yl}piperazine-1-carboxamide], 50 to 1000 nM. The molecule `O=C(Nc1cc(C(F)(F)F)cc(C(F)(F)F)c1)N1CCN(c2nccnc2CCc2ccncc2)CC1` [Example 96, N-[3,5-bis(trifluoromethyl)phenyl]-4-[3-(2-pyridin-4-ylethyl)pyrazin-2-yl]piperazine-1-carboxamide] gave an IC50 of 50 to 1000 nM.

In the case of `O=C(Nc1cc(C(F)(F)F)cc(C(F)(F)F)c1)N1CCN(c2ncccc2OCc2ccncc2)CC1` [Example 97, N-[3,5-bis(trifluoromethyl)phenyl]-4-{3-[(pyridin-4-ylmethyl)oxy]pyridin-2-yl}piperazine-1-carboxamide], the IC50 is less than 50 nM. The molecule `Nc1cc(COc2nsnc2N2CCN(C(=O)Nc3cc(C(F)(F)F)cc(C(F)(F)F)c3)CC2)ccn1` [Example 99, 4-(4-{[(2-aminopyridin-4-yl)methyl]oxy}-1,2,5-thiadiazol-3-yl)-N-[3,5-bis(trifluoromethyl)phenyl]piperazine-1-carboxamide] had an IC50 of less than 50 nM. For the molecule `CC(C)(C)OC(=O)Nc1cc(COc2nsnc2N2CCN(C(=O)Nc3cc(C(F)(F)F)cc(C(F)(F)F)c3)CC2)ccn1` [Example 100, 1,1-dimethylethyl {4-[({4-[4-({[3,5-bis(trifluoromethyl)phenyl]amino}carbonyl)piperazin-1-yl]-1,2,5-thiadiazol-3-yl}oxy)methyl]pyridin-2-yl}carbamate], the half-inhibitory concentration (IC50) is less than 50 nM.

The molecule `COC(=O)Nc1cc(COc2nsnc2N2CCN(C(=O)Nc3cc(C(F)(F)F)cc(C(F)(F)F)c3)CC2)ccn1` [Example 101, methyl {4-[({4-[4-({[3,5-bis(trifluoromethyl)phenyl]amino}carbonyl)piperazin-1-yl]-1,2,5-thiadiazol-3-yl}oxy)methyl]pyridin-2-yl}carbamate] displayed an IC50 of less than 50 nM.

Take `Nc1cc(COc2nsnc2N2CCNCC2)ccn1` [Example 102, 4-{[(4-piperazin-1-yl-1,2,5-thiadiazol-3-yl)oxy]methyl}pyridin-2-amine]: the IC50 was not below 10000 nM. The result for `O=C(Nc1ccc(Cl)cc1)N1CCN(c2ncccc2OCc2ccncc2)CC1` [Example 103, N-(4-chlorophenyl)-4-{3-[(pyridin-4-ylmethyl)oxy]pyridin-2-yl}piperazine-1-carboxamide] reads not below 10000 nM; that for `Nc1nccc(COc2nsnc2N2CCN(C(=O)Nc3cc(C(F)(F)F)cc(C(F)(F)F)c3)CC2)n1` [Example 104, 4-(4-{[(2-aminopyrimidin-4-yl)methyl]oxy}-1,2,5-thiadiazol-3-yl)-N-[3,5-bis(trifluoromethyl)phenyl]piperazine-1-carboxamide], less than 50 nM.

Usually IC50 stands for the concentration that gives 50% inhibition.

The values above are taken from patent US8013156B2 (Exelixis, Inc., priority 2003, dated 2011).
